The text below walks through data of patent US20030216571A1, “Tricyclic compounds” (priority 1999, published 2003).

Series [1] relates to Leukotriene D4 induced respiratory constriction. Put plainly: Leukotriene D4 induced respiratory constriction test. The series is classed as in vivo. Conditions: p.o. 1 hr before i.v. LTD4; anesthetized Hartley male guinea pigs; respiratory inner pressure. The procedure:
Leukotriene D4 Induced Respiratory Constriction Test
Respiratory constriction was measured by modifying the method of Konzett and Rossler (Arch. Exp. Pathol. Pharmakol., 195, pp. 71-74 (1940)). Hartley male guinea pigs (400 to 500 g body weight, Nippon SLC Co.) were anesthetized with pentobarbital (50 mg/kg, s.c.), and a cannula was inserted into the trachea to carry out artificial ventilation with an artificial ventilator (manufactured by Harvard Co., Model 683). An inner pressure of the respiratory tract was measured by a differential pressure transducer (Nihon Koden, TP-603T) connected to the respiratory cannula and it is used as an index of respiratory constriction.
LTD4 (0.03, 0.06, 0.13, 0.25, 0.5, 1 and 2 μg/kg, Sigma Co.) was intravenously administered from a cannula inserted into the right jugular vein from a low dose with an interval of 5 minutes to cause a respiratory constriction reaction and an increased amount of a respiratory inner pressure was measured. Test compound was suspended in 0.5% sodium carboxymethyl cellulose aqueous solution, and orally administered 1 hour before administration of LTD4. Animals were fasted for 24 hours before administration of the Test compound.
A2=(Dose of Compound administered)/{(ED50 of group to which Compound was added)/(ED50 of control group)−1}

A further series deals with T1, Leukotriene D4 receptor (Cavia porcellus, UniProt Q2NNR5).
T1 construct: As a receptor sample, a lung cell membrane fraction from guinea pigs was used; from tissue; host or cells: lung membrane fraction of Hartley male guinea pigs
T1 sequence (Q2NNR5 1-340): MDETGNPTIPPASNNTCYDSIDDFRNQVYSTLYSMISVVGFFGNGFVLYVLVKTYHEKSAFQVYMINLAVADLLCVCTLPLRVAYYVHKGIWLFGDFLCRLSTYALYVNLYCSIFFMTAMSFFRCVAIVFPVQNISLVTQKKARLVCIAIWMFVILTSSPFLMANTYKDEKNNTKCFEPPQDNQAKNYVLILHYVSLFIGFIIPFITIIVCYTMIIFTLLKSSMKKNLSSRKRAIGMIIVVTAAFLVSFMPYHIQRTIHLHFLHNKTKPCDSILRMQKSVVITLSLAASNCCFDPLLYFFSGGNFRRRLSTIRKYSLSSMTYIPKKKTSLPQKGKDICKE
The series can be described thus: Leukotriene D4 receptor binding test. As to conditions: binding inhibition constant (Ki) vs [3H] LTD4 0.2 nM; lung cell membrane fraction from guinea pigs; 25° C. for 30 minutes; read-out: pKi value (converted). How it is done: Leukotriene D4 Receptor Binding Test
As a receptor sample, a lung cell membrane fraction from guinea pigs was used. Preparation of the membrane fraction was carried out according to the method of Ahn et al. (Eur. J. Pharmacol., 127, 153-155 (1986)). Lungs of Hartley male guinea pigs (400 to 500 g body weight, Nippon SLC Co.) were extracted, and perfused with a physiological saline, and then, adding 10 mM of PIPES, 10 mM of MgCl2 and 10 mM of CaCl2 buffer (pH 7.5) to the lung tissue and the mixture was homogenized. This homogenate was centrifuged at 70,000 xg for 10 minutes to obtain a membrane fraction.
Leukotriene D4 (LTD4) recepter binding test was carried out according to the method of Aharony, et al. (J. Pharmacol. Expl.Ther., 243, 921-926 (1987)). To 0.42 mg of the receptor sample were added 10 mM of PIPES, 10 mM of MgCl2 and 10 mM of CaCl2 buffer (pH 7.5) to make the total amount of 480 μl, and 10 μl of [^3H] LTD4 (NEN Life Science Products Co.) and 10 μl of a Test compound in dimethylsulfoxide were added to the mixture, and the resulting mixture was incubated at 25° C. for 30 minutes. The mixtures thus incubated were filtered through a glass fiber filter (Whatman Co., GF/C) using cell harvester (Brandel Co., M-30R). The filter were washed with 10 mM of Tris. and 100 mM of NaCl buffer (pH 7.5), and 5 ml of a liquid scintillator (NACALAI TESQUE INC., clearsol I), and radioactivity was measured by a liquid scintillation analyzer (Packard Co., 2000CA). When a dissociation constant (Kd) of LTD4 was to be obtained, [^3H] LTD4 with 0.03 to 0.5 nM was used, and 1 μM of non-radioactive LTD4 was added. When a binding inhibition constant (Ki) of the Test compound is to be meaured, [^3H] LTD4 with 0.2 nM was used. Kd and Ki are calculated according to the method of Bennett et al. (Neurotransmitter Receptor Binding, 2nd ed., edited by H. I. Yamamura et al., pp. 61-89, Raven Press (1985)).

The compound `C[C@@H](CSC1c2ccccc2COc2ccc(/C=C/c3ccc4cc(F)c(F)cc4n3)cc21)C(=O)[O-].[Na+]` (stereo partly drawn) [Example 44, Sodium 3-{[2-[(E)-2-(6,7-difluoro-2-quinolinyl)ethenyl]-6,11-dihydrodibenz[b,e]oxepin-11-yl]thio}-2-(R)-methylpropionate] yielded a melting point of 196 to 220 °C. For the same compound, the “A2 (dose of Test compound required for shifting two-times the LTD4 dose-reaction curve of control group to higher dose side)” value in series [1] came to 5 µg/kg. The Ki at Leukotriene D4 receptor is 0.2 nM.

`O=C(O)CCSC1c2cc(/C=C/c3ccc4cc(F)c(F)cc4n3)ccc2OCc2c(F)cccc21` (stereo not drawn) [Example 12, 3-{[2-[(E)-2-(6,7-difluoro-2-quinolinyl)ethenyl]-7-fluoro-6,11-dihydrodibenz[b,e]oxepin-11-yl]thio}propionic acid] registered a melting point of 224 to 227 °C. Moreover, in series [1], the “A2 (dose of Test compound required for shifting two-times the LTD4 dose-reaction curve of control group to higher dose side)” value worked out at 4.9 µg/kg. For the same compound, on Leukotriene D4 receptor, the Ki was 0.158 nM.

`C#Cc1cccc2c1COc1ccc(/C=C/c3ccc4cc(F)c(F)cc4n3)cc1C2SCCC(=O)[O-].[Na+]` (stereo not drawn) [Example 15, Sodium 3-{[2-[(E)-2-(6,7-difluoro-2-quinolinyl)ethenyl]-7-ethynyl-6,11-dihydrodibenz[b,e]oxepin-11-yl]thio}propionate] displayed a melting point of 186 to 189 °C. Besides, in series [1], the “A2 (dose of Test compound required for shifting two-times the LTD4 dose-reaction curve of control group to higher dose side)” value is 0.8 µg/kg. In addition, the Ki on Leukotriene D4 receptor was 0.158 nM.

Consider `O=C([O-])CCSC1c2ccccc2COc2ccc(/C=C/c3ccc4cc(F)c(F)cc4n3)cc21.[Na+]` (stereo not drawn) [Example 5 (b), Sodium 3-{[2-[(E)-2-(6,7-difluoro-2-quinolinyl)ethenyl]-6,11-dihydrodibenz[b,e]oxepin-11-yl]thio}propionate], for which the melting point is 213 to 216 °C. Also, the “A2 (dose of Test compound required for shifting two-times the LTD4 dose-reaction curve of control group to higher dose side)” value in series [1] is 2.6 µg/kg. Besides, on Leukotriene D4 receptor, the Ki is 0.251 nM.

`O=C([O-])CCSC1c2ccccc2COc2ccc(/C=C/c3ccc4c(F)c(F)c(F)cc4n3)cc21.[Na+]` (stereo not drawn) [Example 34 (b), Sodium 3-{[2-[(E)-2-(5,6,7-trifluoro-2-quinolinyl)ethenyl]-6,11-dihydrodibenz[b,e]oxepin-11-yl]thio}propionate]: the melting point lay in the range of 235 to 237 °C. Moreover, the “A2 (dose of Test compound required for shifting two-times the LTD4 dose-reaction curve of control group to higher dose side)” value in series [1] came to 7.7 µg/kg. For the same compound, the Ki at Leukotriene D4 receptor was 0.631 nM.
